Results from PMC7026480, “Discovery of Multitarget-Directed Ligands Against Influenza A Virus From Compound Yizhihao Through a Predictive System for Compound-Protein Interactions” (Frontiers in Cellular and Infection Microbiology, 2020).
Where two headings read alike, the source gives them in different places.

How the values were obtained:
TNF-α = type: cell-based, human; for TNF-α expression in cell culture supernatant in comparison with the model group: test concentration or dose not given here
[1] = target: neuraminidase (NA) of A/PR/8/34 (H1N1) (Influenza A virus, UniProt P03468); experiment: biochemical
Chain of neuraminidase (NA) of A/PR/8/34 (H1N1) (P03468 whole entry, looked up): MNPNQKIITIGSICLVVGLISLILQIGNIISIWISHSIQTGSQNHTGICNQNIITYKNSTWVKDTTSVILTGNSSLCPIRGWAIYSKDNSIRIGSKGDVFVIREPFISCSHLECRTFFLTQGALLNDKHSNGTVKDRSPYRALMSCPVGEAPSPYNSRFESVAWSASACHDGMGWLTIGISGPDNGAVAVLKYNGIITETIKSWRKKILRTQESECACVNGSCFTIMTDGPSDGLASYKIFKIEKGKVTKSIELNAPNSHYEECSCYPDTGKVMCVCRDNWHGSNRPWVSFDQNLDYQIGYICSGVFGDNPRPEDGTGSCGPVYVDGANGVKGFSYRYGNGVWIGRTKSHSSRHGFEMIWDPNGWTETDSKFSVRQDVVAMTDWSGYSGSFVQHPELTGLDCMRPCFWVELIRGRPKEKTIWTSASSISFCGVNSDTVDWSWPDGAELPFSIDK

[2] = tested on: A/Minfang/151/2000 (wild-type H3N2); experiment: microbe, parasite or virus in culture; type: cell-based; settings: Influenza A virus, H3N2, MDCK
[3] = tested on: A/Puerto Rico/8/34 (wild-type H1N1); experiment: microbe, parasite or virus in culture; type: cell-based; settings: Influenza A virus
[4] = read-out: IC50, CPE reduction, A/Minfang/151/2000 (H3N2), Drug administration after virus inoculation
[5] = read-out: IC50, CPE reduction, A/Minfang/151/2000 (H3N2), Pre-incubation of virus and drug
[6] = read-out: IC50, CPE reduction, A/Minfang/151/2000 (H3N2), Simultaneous action of virus and drug
[7] = read-out: IC50, CPE reduction, A/Minfang/151/2000 (H3N2), Virus inoculation after drug administration
[8] = H1N1 / PR/8, MDCK, read-out: IC50, CPE reduction, A/PR/8/34 (H1N1), Drug administration after virus inoculation
[9] = H1N1 / PR/8, MDCK, read-out: IC50, CPE reduction, A/PR/8/34 (H1N1), Pre-incubation of virus and drug
[10] = H1N1 / PR/8, MDCK, read-out: IC50, CPE reduction, A/PR/8/34 (H1N1), Simultaneous action of virus and drug
[11] = H1N1 / PR/8, MDCK, read-out: IC50, CPE reduction, A/PR/8/34 (H1N1), Virus inoculation after drug administration
[12] = IC50, NA inhibition test, A/PR/8/34 (H1N1)
[13] = read-out: IC50, CPE reduction, H3N2 wild-type, in the four modes of action tested
[14] = H1N1, MDCK, read-out: IC50, CPE reduction, H1N1 wild-type, in the four modes of action tested

Compound | TNF-α expression in cell culture supernatant in comparison with the model group (TNF-α) | IC50 [2, 4] | IC50 [2, 5] | IC50 [2, 6] | IC50 [2, 7] | IC50 [3, 8] | IC50 [3, 9] | IC50 [3, 10] | IC50 [3, 11] | further results
C=C(C(=O)O)[C@H]1CC[C@H](C)[C@@H]2CC(=O)C(C)=C2C1 (stereo in doubt) [Rupestonic acid] | significantly less TNF-α | – | – | – | – | – | – | – | – | IC50 ([1]; read-out: IC50, NA inhibition test, A/PR/8/34 (H1N1)): > 100 µM
C=CCC(=NOS(=O)(=O)O)S[C@@H]1O[C@H](CO)[C@@H](O)[C@H](O)[C@H]1O (stereo in doubt) [sinigrin] | significantly less TNF-α | – | – | – | – | – | – | – | – | –
COc1ccc(-c2cc(=O)c3c(O)cc(O)cc3o2)cc1 [Acacetin] | – | > 100 µM | 12.5 ± 5.46 µM | 20.5 ± 0.86 µM | 72.5 ± 11.7 µM | 62 ± 5.91 µM | 77.4 ± 25.7 µM | > 100 µM | > 100 µM | –
O=c1cc(-c2ccc(O)cc2)oc2cc(O)cc(O)c12 [Apigenin] | – | > 100 µM | 9.28 ± 2.03 µM | 15.8 ± 1 µM | > 100 µM | > 100 µM | 16.7 ± 1.77 µM | 9.06 ± 0.41 µM | > 100 µM | –
O=C(/C=C/c1ccc(O)c(O)c1)O[C@@H]1C[C@](O)(C(=O)O)C[C@@H](O)[C@H]1O [Chlorogenic acid] | significantly less TNF-α | – | – | – | – | – | – | – | – | IC50 [1, 12]: 64.6 ± 6.97 µM
Cc1cc(O)c2c(c1)C(=O)c1cc(O)cc(O)c1C2=O [Emodin] | – | > 100 µM | 18.2 ± 1.02 µM | 55.9 ± 6 µM | > 100 µM | > 100 µM | 55.9 ± 9.8 µM | 6.53 ± 0.29 µM | > 100 µM | –
C=C[C@@H]1CNC(=S)O1 [Epigoitrin] | significantly less TNF-α | – | – | – | – | – | – | – | – | IC50 [1]: > 100 µM
O=C1Nc2ccccc2/C1=C1/Nc2ccccc2C1=O [Indirubin] | – | > 100 µM | > 100 µM | > 100 µM | 52.6 ± 27.4 µM | > 100 µM | > 100 µM | > 100 µM | > 100 µM | –
O=c1cc(-c2ccc(O)c(O)c2)oc2cc(O)cc(O)c12 [Luteolin] | significantly less TNF-α | > 100 µM | 44.7 ± 20 µM | > 100 µM | > 100 µM | > 100 µM | 4.53 ± 0.92 µM | 7.08 ± 0.3 µM | > 100 µM | effect on TNF-α compared with positive drugs (TNF-α): greater effect on TNF-α than positive drugs
O=c1cc(-c2ccc(O)c(O)c2)oc2c([C@@H]3O[C@H](CO)[C@@H](O)[C@H](O)[C@H]3O)c(O)cc(O)c12 [Orientin] | significantly less TNF-α | – | – | – | – | – | – | – | – | IC50 [1, 12]: 53.7 ± 9.98 µM
CCOC(=O)C1=C[C@@H](OC(CC)CC)[C@H](NC(C)=O)[C@@H](N)C1 [Oseltamivir, oseltamivir phosphate, reference compound] | – | 77.9 ± 22.1 µM | 6.25 ± 2.6 µM | 8.47 ± 1.73 µM | 54.5 ± 14.2 µM | 83.4 ± 15.6 µM | 74.9 ± 20.7 µM | 4.45 ± 0.24 µM | 11.4 ± 7.44 µM | IC50 [2, 13]: < 100 µM; IC50 [3, 14]: < 100 µM
O=c1c(O)c(-c2ccc(O)c(O)c2)oc2cc(O)cc(O)c12 [Quercetin] | – | > 100 µM | 9.99 ± 2.84 µM | 18.3 ± 3.52 µM | > 100 µM | > 100 µM | 8.59 ± 1.34 µM | 5.41 ± 0.14 µM | > 100 µM | –
NC(=O)c1ncn([C@@H]2O[C@H](CO)[C@@H](O)[C@H]2O)n1 [Ribavirin, ribavirin, reference compound] | – | 22.5 ± 6.16 µM | 9.18 ± 0.99 µM | 21.7 ± 0.97 µM | 62.5 ± 16.2 µM | 16.1 ± 1.47 µM | 10.4 ± 2.19 µM | 16.4 ± 2.95 µM | 47.5 ± 7.94 µM | IC50 [2, 13]: < 100 µM; IC50 [3, 14]: < 100 µM
O=C1c2ccccc2-n2c1nc1ccccc1c2=O [Tryptanthrin] | except tryptanthrin, were associated with significantly less TNF-α | > 100 µM | 17.7 ± 1.74 µM | 31.8 ± 11.6 µM | 76.3 ± 3.4 µM | > 100 µM | 72 ± 23.6 µM | > 100 µM | > 100 µM | –
O=C(/C=C/c1ccc(O)cc1)c1ccc(O)cc1O [isoliquiritigenin] | significantly less TNF-α | – | – | – | – | – | – | – | – | effect on TNF-α compared with positive drugs (TNF-α): greater effect on TNF-α than positive drugs
COc1ccc(-c2cc(=O)c3c(O)cc(O[C@@H]4O[C@H](CO[C@@H]5O[C@@H](C)[C@H](O)[C@@H](O)[C@H]5O)[C@@H](O)[C@H](O)[C@H]4O)cc3o2)cc1 [linarin] | significantly less TNF-α | – | – | – | – | – | – | – | – | –
COc1ccc(-c2cc(=O)c3c(OC)c(OC)c(OC)cc3o2)cc1OC [sinensetin] | significantly less TNF-α | – | – | – | – | – | – | – | – | –
cedar acid | significantly less TNF-α | – | – | – | – | – | – | – | – | –
